From PubChem BioAssay AID1918954 (Molecular Pharmacology Branch, DTP, NCI, 2023)
pIC50: −log10 of the molar value.

Test system: MDA-MB-468 complex spheroids with HUVEC/MSC, viability
Assay: Anticancer human tumor MDA-MB-468 cell line growth inhibition;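 further: spheroids exposed to agents for seven days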;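 on viability, T/C: 100% = DMSO vehicle control viability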
Conditions: for pIC50: curve of first compound; for viability, T/C: stronger effect = lower value
How it was run: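 Drug combinations with the LSD1 inhibitor iadademstat tested on tumor cells co-cultured as spheroids with endothelial cells and mesenchymal stem cells. Concentrations descended in half-log increments from clinical Cmax or 10 microM.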

[1] = second compound 0.1 µM, first compound 0.00949 µM
[2] = second compound 0.1 µM, first compound 0.03 µM
[3] = second compound 0.1 µM, first compound 0.0949 µM
[4] = second compound 0.1 µM, first compound 0.3 µM
[5] = second compound 0.316 µM, first compound 0.00949 µM
[6] = second compound 0.316 µM, first compound 0.03 µM
[7] = second compound 0.316 µM, first compound 0.0949 µM
[8] = second compound 0.316 µM, first compound 0.3 µM
[9] = second compound 1 µM, first compound 0.00949 µM
[10] = second compound 1 µM, first compound 0.03 µM
[11] = second compound 1 µM, first compound 0.0949 µM
[12] = second compound 1 µM, first compound 0.3 µM
[13] = second compound 3.16 µM, first compound 0.00949 µM
[14] = second compound 3.16 µM, first compound 0.03 µM
[15] = second compound 3.16 µM, first compound 0.0949 µM
[16] = second compound 3.16 µM, first compound 0.3 µM
[17] = second compound 10 µM, first compound 0.00949 µM
[18] = second compound 10 µM, first compound 0.03 µM
[19] = second compound 10 µM, first compound 0.0949 µM
[20] = second compound 10 µM, first compound 0.3 µM

Structure (SMILES): Nc1ccccc1NC(=O)c1ccc(CNC(=O)OCc2cccnc2)cc1 + NC1CCC(NC2CC2c2ccccc2)CC1
- pIC50 (second compound 0.1 µM): 6.77
- pIC50 (second compound 0.316 µM): 6.85
- pIC50 (second compound 1 µM): 6.90
- pIC50 (second compound 3.16 µM): 6.84
- pIC50 (second compound 10 µM): 6.95
- viability, T/C [1]: 97.4%
- viability, T/C [2]: 106%
- viability, T/C [3]: 87.2%
- viability, T/C [4]: 13.9%
- viability, T/C (second compound 0.1 µM, first compound 0.949 µM): 3.13%
- viability, T/C (second compound 0.1 µM, first compound 3 µM): 1.48%
- viability, T/C [5]: 102%
- viability, T/C [6]: 103%
- viability, T/C [7]: 67.7%
- viability, T/C [8]: 14.6%
- viability, T/C (second compound 0.316 µM, first compound 0.949 µM): 3.32%
- viability, T/C (second compound 0.316 µM, first compound 3 µM): 0.9%
- viability, T/C [9]: 89.1%
- viability, T/C [10]: 90.3%
- viability, T/C [11]: 61.2%
- viability, T/C [12]: 15.9%
- viability, T/C (second compound 1 µM, first compound 0.949 µM): 2.93%
- viability, T/C (second compound 1 µM, first compound 3 µM): 1.42%
- viability, T/C [13]: 80.8%
- viability, T/C [14]: 83.7%
- viability, T/C [15]: 69.6%
- viability, T/C [16]: 14.9%
- viability, T/C (second compound 3.16 µM, first compound 0.949 µM): 3.07%
- viability, T/C (second compound 3.16 µM, first compound 3 µM): 1.04%
- viability, T/C [17]: 59.9%
- viability, T/C [18]: 61%
- viability, T/C [19]: 56%
- viability, T/C [20]: 13.4%
- viability, T/C (second compound 10 µM, first compound 0.949 µM): 3.05%
- viability, T/C (second compound 10 µM, first compound 3 µM): 1.52%

Structure (SMILES): Nc1ccn(C2OC(CO)C(O)C2(F)F)c(=O)n1 (stereo not given) + NC1CCC(NC2CC2c2ccccc2)CC1
- pIC50 (second compound 0.1 µM): > 9.02
- pIC50 (second compound 0.316 µM): > 9.02
- pIC50 (second compound 1 µM): > 9.02
- pIC50 (second compound 3.16 µM): > 9.02
- pIC50 (second compound 10 µM): > 9.02
- viability, T/C (second compound 0.1 µM, first compound 0.000949 µM): 5.76%
- viability, T/C (second compound 0.1 µM, first compound 0.003 µM): 4.85%
- viability, T/C [1]: 5.57%
- viability, T/C [2]: 4.54%
- viability, T/C [3]: 4.56%
- viability, T/C [4]: 5.13%
- viability, T/C (second compound 0.316 µM, first compound 0.000949 µM): 5.33%
- viability, T/C (second compound 0.316 µM, first compound 0.003 µM): 5.22%
- viability, T/C [5]: 5.23%
- viability, T/C [6]: 4.88%
- viability, T/C [7]: 5.47%
- viability, T/C [8]: 5.64%
- viability, T/C (second compound 1 µM, first compound 0.000949 µM): 6.43%
- viability, T/C (second compound 1 µM, first compound 0.003 µM): 6.38%
- viability, T/C [9]: 5.41%
- viability, T/C [10]: 4.34%
- viability, T/C [11]: 4.71%
- viability, T/C [12]: 5.55%
- viability, T/C (second compound 3.16 µM, first compound 0.000949 µM): 6.65%
- viability, T/C (second compound 3.16 µM, first compound 0.003 µM): 5.98%
- viability, T/C [13]: 5.78%
- viability, T/C [14]: 5.89%
- viability, T/C [15]: 4.69%
- viability, T/C [16]: 5.66%
- viability, T/C (second compound 10 µM, first compound 0.000949 µM): 7.63%
- viability, T/C (second compound 10 µM, first compound 0.003 µM): 6.29%
- viability, T/C [17]: 6.52%
- viability, T/C [18]: 7.12%
- viability, T/C [19]: 5.35%
- viability, T/C [20]: 5.45%

Structure (SMILES): O=C(c1cc(Cc2n[nH]c(=O)c3ccccc23)ccc1F)N1CCN(C(=O)C2CC2)CC1 + NC1CCC(NC2CC2c2ccccc2)CC1
- pIC50 (second compound 0.1 µM): 6.11
- pIC50 (second compound 0.316 µM): 6.09
- pIC50 (second compound 1 µM): 6.10
- pIC50 (second compound 3.16 µM): 6.04
- pIC50 (second compound 10 µM): 6.39
- viability, T/C (second compound 0.1 µM, first compound 0.0316 µM): 89.5%
- viability, T/C (second compound 0.1 µM, first compound 0.1 µM): 103%
- viability, T/C (second compound 0.1 µM, first compound 0.316 µM): 76.2%
- viability, T/C (second compound 0.1 µM, first compound 1 µM): 42.6%
- viability, T/C (second compound 0.1 µM, first compound 3.16 µM): 19.3%
- viability, T/C (second compound 0.1 µM, first compound 10 µM): 13.6%
- viability, T/C (second compound 0.316 µM, first compound 0.0316 µM): 93.8%
- viability, T/C (second compound 0.316 µM, first compound 0.1 µM): 87.8%
- viability, T/C (second compound 0.316 µM, first compound 0.316 µM): 71.4%
- viability, T/C (second compound 0.316 µM, first compound 1 µM): 47.7%
- viability, T/C (second compound 0.316 µM, first compound 3.16 µM): 18.2%
- viability, T/C (second compound 0.316 µM, first compound 10 µM): 13.8%
- viability, T/C (second compound 1 µM, first compound 0.0316 µM): 90.2%
- viability, T/C (second compound 1 µM, first compound 0.1 µM): 80.8%
- viability, T/C (second compound 1 µM, first compound 0.316 µM): 71.7%
- viability, T/C (second compound 1 µM, first compound 1 µM): 45.2%
- viability, T/C (second compound 1 µM, first compound 3.16 µM): 21%
- viability, T/C (second compound 1 µM, first compound 10 µM): 15.1%
- viability, T/C (second compound 3.16 µM, first compound 0.0316 µM): 68.4%
- viability, T/C (second compound 3.16 µM, first compound 0.1 µM): 75.3%
- viability, T/C (second compound 3.16 µM, first compound 0.316 µM): 77%
- viability, T/C (second compound 3.16 µM, first compound 1 µM): 47.9%
- viability, T/C (second compound 3.16 µM, first compound 3.16 µM): 20.8%
- viability, T/C (second compound 3.16 µM, first compound 10 µM): 17%
- viability, T/C (second compound 10 µM, first compound 0.0316 µM): 73.9%
- viability, T/C (second compound 10 µM, first compound 0.1 µM): 65.8%
- viability, T/C (second compound 10 µM, first compound 0.316 µM): 53.4%
- viability, T/C (second compound 10 µM, first compound 1 µM): 38.9%
- viability, T/C (second compound 10 µM, first compound 3.16 µM): 23.6%
- viability, T/C (second compound 10 µM, first compound 10 µM): 18.6%
